From patent US20190376110A1, “METHOD TO DETECT BACTERIAL ACTIVITY AND PATHOGENICITY WITH BIODYNAMIC SENTINELS” (Purdue Research Foundation, priority 2018, published 2019) come the findings set out here.

For one experiment, the system named is E. coli pellet. Nature of the experiment: Biodynamic imaging / fluctuation spectroscopy of E. coli bacterial pellet. It is filed as cell-based. The protocol:
(§1) Various bacterial specimens can be prepared in a pellet form. A pellet is a condensed form of bacteria which allows them to be carried and handled more efficiently. Bacteria are grown in LB medium for 4 to 12 hours. When culturing is done, the bacteria density in medium is approximately 10^8 #/mL. To make the pellet, 25 mL of bacteria medium is stored in a centrifuge tube. The medium is centrifuged by 10,000 rpm for 10 minutes (Avanti J-20 XPI). During centrifugation, a pellet is formed at the bottom of a centrifuge tube.
(§2) There are two different sample plate preparations. A monoplex plate is a plate preparation format to test a rapid response of bacteria in single wells. The time resolution of the spectrum measurement is 2 minutes. A multiplex plate is a mode for measuring slow behavior using a measuring period is 30 minutes. For the multiplex, 16 wells are measured in parallel. A plate is firmly fixed on a translational stage controlled at 37 degrees Celsius or other temperature depending on the cell type and the bacterium. The plate is covered with a semi-permeable membrane which prevents the medium from drying out while permitting air molecule exchange.
Backscattered light from a specimen forms a speckle field consisting of many speckles with sizes determined by the point-spread-function of the imaging optics, and the speckle is delivered by a 4-f system (L1 and L2, f=15 cm). After the 4-f system, a lens (L3, f=5 cm) conducts Fourier transformation of the speckle and the Fourier image is formed at a Fourier plane on a Fourier-domain pixel array (such as a CCD).
To gain a more specific understanding of the effect of the nutrient shock, […] is used in a mode called […]. This breaks down the effects of a perturbation into a range of frequencies that are altered by the perturbation. Fluctuation spectroscopy is used routinely in biodynamic imaging applications for drug assays on cancer tissue. In the context of the bacterial pellets, the perturbation similarly can cause spectral changes whose specific frequencies relate to specific speeds of biological processes involved.

For a further experiment, the system named is Listeria pellet. To be noted: short-time response within 30 minutes of dose. The protocol: as §1, §2
(§3) Backscattered light from a specimen forms a speckle field consisting of many speckles with sizes determined by the point-spread-function of the imaging optics, and the speckle is delivered by a 4-f system (L1 and L2, f=15 cm). […]

In another experiment the test system is Salmonella pellet. Nature of the experiment: Biodynamic imaging / fluctuation spectroscopy of Salmonella bacterial pellet. In kind it is cell-based. Particulars: short-time response within 30 minutes of dose. As for the experimental part: as §1, §2, §3
The subject of experiment [1] is Listeria monocytogenes infection of DLD-1 sentinel. Nature of the experiment: Tissue sentinel antibiotic assay, DLD-1 spheroids infected by Listeria. In kind it is cell-based. The protocol: As one example of an infection assay, a DLD-1 colon cancer cell line is prepared as a tissue fragment sentinel. DLD-1 cell lines are cultured for 24 hours and form a spheroid shape after incubation. Spheroids are immobilized within two hours by poly-D-lysine after placing spheroids on a bottom of plate.
To obtain infection spectra, bacteria in a pellet form can be re-suspended by diluting a pellet with various media (5% NaCl, growth medium, PBS etc.). The diluting process produces a uniform concentration of bacteria, and the bacterial concentration can be controlled by controlling volumes of media.
as §2
One of the most important applications of the tissue sentinels is to serve as a dynamic substrate for the study of antibiotic sensitivity and resistance. […]

On to `CCO` [ethanol], for which, in the experiment with E. coli pellet (70% ethanol), the “response of highest frequency” value is recorded as “relatively unaffected”.
Regarding `[Na+].[OH-]` [NaOH], the “spectrogram response of E. coli pellet to chemical agent” value in the experiment with E. coli pellet (FIG. 10) is on record as “broad inhibition of activity”. Also, the “low frequency response after adding chemical agents” value in the experiment with E. coli pellet (FIG. 10 legend) is reported as “highly suppressed”.
For the compound `O=C(O)c1cn(C2CC2)c2cc(N3CCNCC3)c(F)cc2c1=O` [Cipro, Ciprofloxacin], the “response of highest frequencies to Cipro” value in the experiment with Listeria pellet, in the experiment with E. coli pellet (short-time response within 30 minutes of dose) and in the experiment on Salmonella pellet was “not affected” each time.
Turning to `CC1(C)S[C@@H]2[C@H](NC(=O)Cc3ccccc3)C(=O)N2[C@H]1C(=O)O` [penicillin, penicillin G], the “time after antibiotic at which weak infection signal emerges” value in experiment [1] (L. mono, penicillin alone) is “about 8 hours”. For the same compound, the “inhibition of L. mono strain by antibiotic” value in experiment [1] (penicillin alone without streptomycin, FIG. 22) is given as “not completely inhibited”.
